Literature values in patent publication US20250161269A1 (Celmatix Inc., priority 2022, published 2025).
Like-named read-outs stand apart in the source and are kept apart here.

Columns and labels:
[1] = test system: macrophages (RAW264.7 or primary cells); settings: macrophages treated with LPS; cited from earlier work
PCOS animal models = settings: cited from earlier work
[2] = test system: chemotherapy tissue damage animal models; settings: cited from earlier work
PCOS patients = PCOS patients or patients with metabolic disturbances; cited from earlier work
endometriosis patients = settings: cited from earlier work
endometriosis lesion = settings: animals; cited from earlier work
serum albumin = serum albumin (Homo sapiens, UniProt P02768); settings: peripheral circulation; cited from earlier work
Sequence of serum albumin (P02768 25-609): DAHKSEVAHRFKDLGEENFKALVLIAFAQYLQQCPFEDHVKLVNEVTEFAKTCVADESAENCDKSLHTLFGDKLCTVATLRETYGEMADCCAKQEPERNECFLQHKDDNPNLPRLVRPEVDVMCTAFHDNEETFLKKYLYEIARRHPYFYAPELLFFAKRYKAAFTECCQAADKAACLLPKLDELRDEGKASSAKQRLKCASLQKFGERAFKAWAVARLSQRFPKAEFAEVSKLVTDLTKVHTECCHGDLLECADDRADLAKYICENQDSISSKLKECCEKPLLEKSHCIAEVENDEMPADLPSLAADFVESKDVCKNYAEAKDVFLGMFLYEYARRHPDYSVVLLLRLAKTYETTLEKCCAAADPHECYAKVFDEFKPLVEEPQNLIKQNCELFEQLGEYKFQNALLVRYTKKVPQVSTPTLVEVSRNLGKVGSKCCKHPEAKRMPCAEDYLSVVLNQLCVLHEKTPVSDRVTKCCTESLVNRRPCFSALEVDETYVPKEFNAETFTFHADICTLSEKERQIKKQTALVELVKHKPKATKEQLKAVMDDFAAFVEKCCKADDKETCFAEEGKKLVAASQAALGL

[3] = in vivo; cited from earlier work
5-HT2B receptor = 5-HT2B receptor (Homo sapiens, UniProt P41595); settings: antagonist; cited from earlier work
Sequence of 5-HT2B receptor (P41595 whole entry): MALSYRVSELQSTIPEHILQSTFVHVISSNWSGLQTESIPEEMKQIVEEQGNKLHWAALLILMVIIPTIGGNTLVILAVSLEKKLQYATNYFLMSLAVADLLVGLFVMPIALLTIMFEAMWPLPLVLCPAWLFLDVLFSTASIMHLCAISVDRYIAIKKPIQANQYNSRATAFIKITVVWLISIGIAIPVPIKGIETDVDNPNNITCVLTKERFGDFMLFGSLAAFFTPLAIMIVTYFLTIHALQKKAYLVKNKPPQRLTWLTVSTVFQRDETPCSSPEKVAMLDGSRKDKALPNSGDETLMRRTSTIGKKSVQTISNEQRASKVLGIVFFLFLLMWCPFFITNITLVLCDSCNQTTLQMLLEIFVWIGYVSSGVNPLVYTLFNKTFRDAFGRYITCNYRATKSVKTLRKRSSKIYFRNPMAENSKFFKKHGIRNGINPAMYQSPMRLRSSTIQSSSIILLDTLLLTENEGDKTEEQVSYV

MT1 [4] = target: T1, MT1 (Homo sapiens, UniProt P48039); design: host or cells: CHO-K1 cells (as the earlier reading words it); settings: CHO-K1 cells; cited from earlier work
T1 sequence (P48039 whole entry): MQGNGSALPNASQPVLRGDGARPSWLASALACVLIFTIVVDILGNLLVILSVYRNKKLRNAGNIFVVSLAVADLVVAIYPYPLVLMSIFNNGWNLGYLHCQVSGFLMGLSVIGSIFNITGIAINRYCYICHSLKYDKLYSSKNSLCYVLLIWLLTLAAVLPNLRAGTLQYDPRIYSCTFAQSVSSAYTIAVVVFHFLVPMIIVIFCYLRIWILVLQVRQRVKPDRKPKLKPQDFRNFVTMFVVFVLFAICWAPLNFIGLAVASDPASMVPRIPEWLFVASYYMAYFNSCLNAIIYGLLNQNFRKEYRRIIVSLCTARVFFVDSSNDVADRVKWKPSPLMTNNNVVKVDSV

MT2 [5] = target: T2, MT2 (Homo sapiens, UniProt P49286); settings: cited from earlier work
T2 sequence (P49286 1-362): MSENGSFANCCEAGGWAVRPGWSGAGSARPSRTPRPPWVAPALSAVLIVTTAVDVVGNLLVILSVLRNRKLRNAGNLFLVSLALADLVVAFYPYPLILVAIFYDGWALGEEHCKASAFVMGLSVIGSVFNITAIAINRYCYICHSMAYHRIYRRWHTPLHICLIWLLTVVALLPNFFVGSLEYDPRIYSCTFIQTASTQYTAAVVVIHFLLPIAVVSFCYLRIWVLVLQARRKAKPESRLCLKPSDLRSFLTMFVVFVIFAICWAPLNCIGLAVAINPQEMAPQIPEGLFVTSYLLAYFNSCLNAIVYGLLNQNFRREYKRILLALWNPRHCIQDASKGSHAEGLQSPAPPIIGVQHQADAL

MT2 [6] = target: T2, MT2; design: host or cells: CHO-K1 cells (as the earlier reading words it); settings: CHO-K1 cells; cited from earlier work
MT1 [7] = target: T1, MT1; settings: cited from earlier work
MT1 [8] = target: T1, MT1; settings: NIH-3T3 cells; cited from earlier work

| SMILES | Ki (MT1 [4]) | Ki (MT2 [5]) | Ki (MT2 [6]) | Ki (MT1 [7]) | also measured |
| --- | --- | --- | --- | --- | --- |
| COc1ccc2[nH]cc(CCNC(C)=O)c2c1 [Melatonin, N-acetyl-5-methoxytryptamine] |  |  |  |  | LPS-induced expression of pro-inflammatory molecules (e.g. TNFα, IL1B, IL6, IL8) [1]: reduces their LPS-induced expression; metabolic and reproductive traits (PCOS animal models): improve metabolic and reproductive traits; metabolic and reproductive traits [2]: mitigate and protect metabolic and reproductive traits; effect on hyperandrogenism, inflammation, ART outcome, and metabolic function (PCOS patients): beneficial effect; effect on pelvic pain (endometriosis patients): beneficial effect; endometriosis lesion regression (endometriosis lesion): promotes endometriosis lesion regression; bound to serum albumin (serum albumin): approximately 70%; half-life inside the body [3]: 20 to 40 min |
| COc1ccc2cccc(CCNC(C)=O)c2c1 [Agomelatine] |  |  |  |  | Ki (5-HT2B receptor): 660000 pM |
| CCC(=O)NCC[C@@H]1CCc2ccc3c(c21)CCO3 [Ramelteon] | 118 pM | 110 pM | 115 pM |  |  |
| COc1ccc2[nH]cc(CCNC(=O)c3cc(=O)cco3)c2c1 [Piromelatine] |  | 34 pM |  | 22 pM |  |
| CCC(=O)NC[C@@H]1C[C@H]1c1cccc2c1CCO2 [Tasimelteon] | 350 pM |  | 170 pM | 300 pM | Ki (MT1 [8]): 304 pM |
| COc1cc2c(C(C)CNC(C)=O)c[nH]c2cc1Cl (stereo not drawn) [TIK-301, beta-methyl-6-chloromelatonin] |  | 42 pM |  | 81 pM |  |
